The values that follow come from ChEMBL document CHEMBL1132824, “Highly specific inhibitory effect of three-component hybrid liposomes including sugar surfactants on the growth of glioma cells” (Bioorg Med Chem Lett, 2000).

For assay [1], the system named is U-251. As to the kind of experiment: Compound alone was evaluated for inhibitory effect on growth of glioma (U251) cells; Ineffective. Type of assay: functional, cell-based. The following applies: Homo sapiens.
The test system of assay [2] is U-251. As to the kind of experiment: Compound along with Tween 20 and SucCn was evaluated for inhibitory effect on growth of glioma (U251) cells; Effective. Type of assay: functional, cell-based. The following applies: Homo sapiens.

Turning to `CCCCCCCCCCCC(=O)OC[C@@H]1O[C@H](O[C@]2(CO)O[C@H](CO)[C@@H](O)[C@@H]2O)[C@@H](O)[C@@H](O)[C@@H]1O`, the Activity entry in the assay with U-251 [1] is listed as “Ineffective”; with U-251 [2] it was “Effective”.

For the compound `CCCCCCCCCCCCCC(=O)OCC(COP(=O)([O-])OCC[N+](C)(C)C)OC(=O)CCCCCCCCCCCCC` (stereo unspecified), the Activity entry in the assay with U-251 [1] is reported as “Ineffective”; with U-251 [2], “Effective”.

With `CCCCCCCCCC(=O)OC[C@@H]1OC(O[C@]2(CO)OC(CO)C(O)[C@@H]2O)[C@@H](O)[C@H](O)[C@H]1O` (single isomer, unassigned), the Activity result is reported as “Ineffective” in the assay on U-251 [1] and “Effective” in the assay on U-251 [2].
